Data reported in patent US12414958B2, “Medicament and use thereof for treating bacterial infections involving biofilm” (Debiopharm International S.A., priority 2019, dated 2025).

What was measured:
ATCC 43300 MRSA strain [1] = experiment: Induction of resistance studies, ex vivo bacterial exposure to 4×MIC (Example 1); assay type: cell-based, Staphylococcus aureus; details: ex vivo exposure to 4×MIC; single and combination therapy; 24h or 72h biofilm
Experimental: Two experimental settings were used in this study to evaluate the treatment efficacies against early (24h) and/or mature (72h) MRSA catheter formed biofilms. Briefly, mice were anaesthetised by an IP injection of about 120 μl a mix of ketamine (50 mg/kg) and xylazine (10 mg/kg) (4 mL ketamine+2 mL xylazine+10 mL saline). Flank on the right side was shaved and then disinfected by 3 consecutive applications of betadine. A cutaneous and then subcutaneous (SC) incisions of 0.2 cm were made under sterile conditions and a 1 cm segment of polyurethane catheter (Ref. No. ES-04730 Arrow international) cut into 2 longitudinal fragments was inserted SC (into the incision and then pushed further under the skin, about 2 cm away from the incision). The inoculation was done simultaneously by placing 50 μl of the bacterial culture onto the catheter (10^6 CFU of ATCC 43300 MRSA strain). The incision was stitched up and disinfected. The day of the infection was referred to as Day0 (D0). To ensure that the study was conducted in sterile conditions from the start to the end of the experiment, non-infected mice (sentinel group) were included. […] In both 24 h and 72h biofilm settings, two groups of infected non-treated animals (Vehicle controls) were evaluated for bacterial counts: at baseline (24h or D1 [for 24-h biofilm] and 72h or D3 [for 72-h biofilm] post infection, i.e. time points corresponding to treatments initiations) and at the termination of treatment duration (D6 [for 24-h biofilm] and D8 [for 72-h biofilm] post infection). Post treatment CFUs were counted on D6 or D8 and results were expressed as Log10 CFU/g of catheter (Mean±SEM). The limit of detection was determined as being 1 Log10 CFU/g of catheter. Changes of CFU/g of catheter (Δ Log10) from the baseline (D1 or D3 for 24-h and 72-h biofilm, respectively) and cure rates (corresponding to the percentage of mice without catheter-associated bacteria within a given treatment group) were also calculated. In vivo induction of antibiotic-resistant bacteria was analysed for all tested antibiotics.

MRSA 43300 = experiment: MIC of Debio 1452; assay type: cell-based; details: Staphylococcus aureus
ATCC 43300 MRSA strain [2] = experiment: In vivo murine model of catheter associated infection, 24 h and 72 h MRSA biofilms; parameters: species or system Staphylococcus aureus; details: for CR (%) cure rate: 5.5-day treatment, percentage of mice without catheter-associated bacteria
Experimental: Two experimental settings were used in this study to evaluate the treatment efficacies against early (24h) and/or mature (72h) MRSA catheter formed biofilms. Briefly, mice were anaesthetised by an IP injection of about 120 μl a mix of ketamine (50 mg/kg) and xylazine (10 mg/kg) (4 mL ketamine+2 mL xylazine+10 mL saline). Flank on the right side was shaved and then disinfected by 3 consecutive applications of betadine. A cutaneous and then subcutaneous (SC) incisions of 0.2 cm were made under sterile conditions and a 1 cm segment of polyurethane catheter (Ref. No. ES-04730 Arrow international) cut into 2 longitudinal fragments was inserted SC (into the incision and then pushed further under the skin, about 2 cm away from the incision). The inoculation was done simultaneously by placing 50 μl of the bacterial culture onto the catheter (10^6 CFU of ATCC 43300 MRSA strain). The incision was stitched up and disinfected. The day of the infection was referred to as Day0 (D0). To ensure that the study was conducted in sterile conditions from the start to the end of the experiment, non-infected mice (sentinel group) were included. Treatments started either on D1 or D3 post infection, corresponding to early (24h) or more mature (72h) catheter formed biofilms, respectively, and lasted for 5.5 days (D1-D6) or (D3-D8). In both 24 h and 72h biofilm settings, two groups of infected non-treated animals (Vehicle controls) were evaluated for bacterial counts: at baseline (24h or D1 [for 24-h biofilm] and 72h or D3 [for 72-h biofilm] post infection, i.e. time points corresponding to treatments initiations) and at the termination of treatment duration (D6 [for 24-h biofilm] and D8 [for 72-h biofilm] post infection). Post treatment CFUs were counted on D6 or D8 and results were expressed as Log10 CFU/g of catheter (Mean±SEM). The limit of detection was determined as being 1 Log10 CFU/g of catheter. Changes of CFU/g of catheter (Δ Log10) from the baseline (D1 or D3 for 24-h and 72-h biofilm, respectively) and cure rates (corresponding to the percentage of mice without catheter-associated bacteria within a given treatment group) were also calculated. In vivo induction of antibiotic-resistant bacteria was analysed for all tested antibiotics.
Antibiotics doses were selected according to the effective doses in animals, which approximated the therapeutic human equivalent doses (HED) (Table 1).
Mice received antibiotics on D1, D2, D3, D4, D5 and D6 (only one administration at D6) or D3, D4, D5, D6, D7 and D8 (only one administration at D8). All antibiotics were administered BID IP, except Debio 1450 BES and Vancomycin, which were respectively given PO and SC. Daptomycin was tested as a once daily regimen to avoid tolerability issues. The antibiotics daily dosing was performed with a 10-12 hours interval between the two administrations. For combination therapy, antibiotics were administered simultaneously every 10-12 hours (the time required between the injection of the first antibiotic and the injection of the second antibiotic was less than 30 seconds per mouse).
In each sub-study, animals were randomly assigned to the antibiotic therapies or vehicle controls groups. Dose volumes were calculated according to individual body weight of each animal.
After blood collection, animals were sacrificed by cervical dislocation following anaesthesia. Two fragments of catheter per mouse were collected and were used for bacterial enumeration after sonication. Each fragment of catheter was individually washed under aseptic conditions in an Eppendorf tube (3 successive washing steps with 300 μl sterile saline). After the last wash, the catheter was suspended in 1 mL sterile saline, put in an ultrasonic bath (Advantage Lab) for 3 minutes at room temperature before being vigorously vortexed in order to detach all adherent bacteria from the catheter. Several successive dilutions of this suspension (undiluted, 10-2, […]) were cultured onto Chapman agar plates for 48 h at 37° C. […]

SMILES | emergence of resistant mutants (ATCC 43300 MRSA strain [1]) | MIC (MRSA 43300; determined in-house) [µg/mL] | MIC (MRSA 43300; historical data from the Sponsor) [µg/mL] | Log10 CFU/g of catheter (D 6) Mean ± SEM (ATCC 43300 MRSA strain [2]; Biofilm (24 h), 5.5-day treatment (D1-D6), BALB/c mice, doses as in Table 2) | ΔLog10 CFU/g of catheter from (D 1) Mean ± SEM (ATCC 43300 MRSA strain [2]; Biofilm (24 h), 5.5-day treatment (D1-D6), change from baseline D 1, BALB/c mice) | CR (%) cure rate (ATCC 43300 MRSA strain [2]; Biofilm (24 h)) [%] | Log10 CFU/g of catheter (D 8) Mean ± SEM (ATCC 43300 MRSA strain [2]; Biofilm (72 h), 5.5-day treatment (D3-D8), BALB/c mice, doses as in Table 2) | ΔLog10 CFU/g of catheter from (D 3) Mean ± SEM (ATCC 43300 MRSA strain [2]; Biofilm (72 h), 5.5-day treatment (D3-D8), change from baseline D 3, BALB/c mice) | CR (%) cure rate (ATCC 43300 MRSA strain [2]; Biofilm (72 h)) [%]
Cc1c(CN(C)C(=O)/C=C/c2cnc3c(c2)CCC(=O)N3)oc2ccccc12 [Debio 1452, (E)-N-methyl-N-((3-methylbenzofuran-2-yl)methyl)-3-(7-oxo-5,6,7,8-tetrahydro-1,8-naphthyridin-3-yl) acrylamide] | no emergence of resistant mutants | 0.0625 | 0.008 | – | – | – | – | – | –
CN[C@H](CC(C)C)C(=O)N[C@H]1C(=O)N[C@@H](CC(N)=O)C(=O)N[C@H]2C(=O)N[C@H]3C(=O)N[C@H](C(=O)N[C@H](C(=O)O)c4cc(O)cc(O)c4-c4cc3ccc4O)[C@H](O)c3ccc(c(Cl)c3)Oc3cc2cc(c3O[C@@H]2O[C@H](CO)[C@@H](O)[C@H](O)[C@H]2O[C@H]2C[C@](C)(N)[C@H](O)[C@H](C)O2)Oc2ccc(cc2Cl)[C@H]1O [Vancomycin] | no emergence of resistant mutants | – | – | 5.08 ± 0.105 Log10 CFU/g of catheter | −1.59 ± 0.105 Log10 CFU/g of catheter | 0 | 4.84 ± 0.077 Log10 CFU/g of catheter | −1.94 ± 0.077 Log10 CFU/g of catheter | 0
